Assay [1] has as its system five CRC-derived T1799 mutant BRAF cell lines. The assay can be described thus: CellTiter-Glo proliferation assay, panel summary. It is filed as cell-based. The following applies: absence of FGF2, read-out: IC50 values, range over cell lines. Here is the method: (§1) All cell lines were purchased from ATTC (SK-MEL-5, SK-MEL-24, UACC-62, COLO 741, COLO-800, WM-266-4, Colo205, LS411N, SW 1417), ECACC (MDST8), DSMZ (CL-34) and NCI (LOX IMVI). […] Cell lines were cultured in 37° C. and 5% CO2 incubator and expanded in T-75 flasks. In all cases cells were thawed from frozen stocks, expanded through passage using 1:3 dilutions, counted and assessed for viability using a ViCell counter (Beckman-Coulter), prior to plating in 96-well or 6-well plates. To split and expand cell lines, cells were dislodged from flasks using 0.25% Trypsin-EDTA (GIBCO, Catalog number 25200). All cell lines were determined to be free of mycoplasma contamination as determined by a PCR detection methodology performed at Idexx Radii (Columbia, Mo., USA) and correctly identified by detection of a panel of SNPs. […]
(§2) For CellTiter-Glo™ assays, cells were dispensed into tissue culture treated 96-well plates (Costar, catalog number 3904) with a final volume of 80 μL of medium and at density of 3000 cells per well. […] Plates were incubated for 72 hrs and the effects of compounds on cell proliferation was determined using the CellTiter-Glo™ Luminescent Cell Viability Assay (CTG, Promega) and a Victor™ X4 plate reader (Perkin Elmer). […] Cells were continuously monitored every two hours for seven days with the xCELLigence real-time impedance based cell analyzer. […]
Background: Cellular ATP, detected with luciferase, serves as a proxy for viable cell number.

Assay [2] deals with six melanoma T1799 mutant BRAF cell lines. Put plainly: CellTiter-Glo proliferation assay, panel summary. As to conditions: absence of FGF2, read-out: IC50 values, range over cell lines. It is filed as cell-based. Here is the method:
as §1, §2

Each structure is given as a SMILES string.

Regarding `COC(=O)N[C@@H](C)CNc1nccc(-c2cn(C(C)C)nc2-c2cc(Cl)cc(NS(C)(=O)=O)c2F)n1` [Compound of Formula (I)], the IC50 in assay [1] was in the range of 4 to 185 nM; in assay [2], 3 to 470 nM.

For orientation: IC50 means the midpoint of a concentration-inhibition curve.
